Test results from patent US11318113B2, “Compounds for the treatment of diseases linked to mitochondrial reactive oxygen species (ROS) production” (OP2 DRUGS, priority 2015, dated 2022).

Key:
[1] = test system: TH-positive neurons in the substantia nigra of MPTP-treated mice; experiment: Sub-chronic MPTP mouse model of Parkinson's disease, TH-positive neuron count; assay type: in vivo; details: 5 mg/kg ip, 11 consecutive days; p<0.01
Experimental: In this study, the potential neuroprotective effects of AOL were assessed by counting the number of tyrosine hydroxylase (TH)-positive neurons in the substantia nigra (SN) in the sub-chronic 1-methyl-4-phenyl-1,2,3,6-tetrahydropyridine (MPTP) mouse model of Parkinson's disease. Mice were treated with AOL (5 mg/kg; ip) or vehicle for 11 consecutive days. MPTP (20 mg/kg; ip) or saline was administered on treatment days 4-8. All mice were killed on day 12 following final administration of treatment.
For vehicle conditions, the test item was dissolved in 0.5% DMSO/0.95% Tween 20 in saline while AOL was administered intraperitoneally (i.p.) at the dose of 5 mg/kg. […]
Unbiased stereological analysis was used to estimate the number of TH-immunopositive (TH+) neurons (Mercator, Explora Nova, La Rochelle, France). The boundaries of the SN were determined by examining the size and shape of the different TH+ neuronal groups. The volume was calculated by using the formula: V=ΣS td; where ΣS is the sum of surface areas, t is the average section thickness and d is the number of slices between two consecutive sections measured. […] The following formula was used to estimate the number of TH+ neurons: N=V(SN) (ΣQ−/ΣV(dis)); where N is the estimation of cell number, V is the volume of the SN, ΣQ− is the number of cells counted in the dissectors, and ΣV(dis) is the total volume of all the dissectors. […]

[2] = test system: site IQ of complex I of the mitochondrial respiratory chain; experiment: Mitochondrial ROS/H2O2 production (Amplex Red/HRP), no complex inhibitor, ATR only; assay type: biochemical, rat; details: glutamate+malate+succinate, ATR (state 4); AOL 5 to 80 μM
Experimental: (§1) Rates of ROS/H2O2 production from heart mitochondria were assessed through the oxidation of the colorless, non-fluorescent indicator Amplex Red in the presence of exogenous horseradish peroxidase (HRP, EC 1.11.1.7, Sigma). H2O2 reacts with Amplex Red in a 1:1 stoichiometry, yielding the fluorescent compound resorufin (excitation: 560 nm; emission: 585 nm) which is stable once formed. Fluorescence was measured continuously with a spectro-fluorometer equipped with temperature control and stirring (SAFAS Xenius, Monaco). Isolated mitochondria (0.1 mg/mL) were incubated in the same experimental buffer than previously, supplemented with 15 μM Amplex Red and 10 μg/mL HRP. Glutamate (5 mM)/malate (2.5 mM) together with succinate (5 mM) were used as complex I and complex II substrates, respectively. Experiments were conducted under non-phosphorylating conditions in the presence of 15 μM atractyloside, i.e. under state IV conditions where mitochondrial membrane […]. […]
(§2) FIG. 3 illustrates the effect of the presence of increasing concentrations of AOL (from 5 to 80 μM) on ROS/H2O2 production measured under the different conditions defined in FIG. 2. […]

[3] = test system: other mitochondrial sites of ROS production (site IIIQO, site IF); experiment: Mitochondrial ROS/H2O2 production (Amplex Red/HRP) after rotenone, antimycin A, myxothiazol; assay type: biochemical, rat; details: AOL 5 to 80 μM
Experimental: as §1, §2

[4] = stated as known; cited from earlier work

For `COc1ccc(-c2cc(=S)ss2)cc1` [AOL, 5-(4-methoxyphenyl)-3H-1,2-dithiole-3-thione], the “increase in number of TH+ cells in the SN compared to vehicle in MPTP-treated mice” value [1] was 44%, the “decrease of ROS/H2O2 production measured in the absence of inhibitor” value [2] was “approximately 80%” and the “ROS/H2O2 production under the other conditions” value [3] was “no statistical differences were observed”. For the same molecule, the bioavailability [4] was “very short”.
